Results reported in patent US20250268878A1, “FERROPORTIN-INHIBITORS FOR THE USE IN THE TREATMENT OF MYELODYSPLASTIC SYNDROMES (MDS)” (Vifor (International) AG, priority 2021, published 2025).
Entries after “also recorded” stand apart in the source; their conditions may differ.

Legend:
[1] = system: transfused guinea pigs; settings: cited from earlier work
[2] = system: NUP98-HOXD13 MDS mice; test: NUP98-HOXD13 MDS mouse model, rescuing effect (treatment from 5 months of age); format: in vivo; settings: over a total of 10
[3] = system: NUP98-HOXD13 MDS mice; test: NUP98-HOXD13 MDS mouse model, preventive effect (treatment from 3 months of age); format: in vivo; settings: for Immature Lin+ cKit+ cells in bone marrow: 3 months-long treatment; for Erythropoiesis / erythroid maturation in bone marrow and spleen: CD71 and CD44 loss on Ter119+ cells; for ROS formation in Ter119+ erythroid precursors: flow cytometry; for NTBI levels: serum, 0.5 mg/ml in drinking water
Protocol: (§1) • The ferroportin inhibitor compound Fpn127 was tested in NUP98-HOXD13 MDS mice. Fpn127was administered in drinking water containing 1% glucose at the concentration of 0.5 mg/ml.
• To study the protective effect of ferroportin inhibitors according to the invention on the progressive development of iron overload and related toxicities, overall 15 3-month-old MDS mice were treated with the Example Compound Fpn127 and compared to age-and sex-matched 15 untreated MDS mice and wild-type control (total of 3 repeated experiments). Mice were treated for 3 months-from 3 to 6 months of age. During the treatment period 2 untreated and 1 treated MDS mice were lost. • MDS mice of 3 months of age already show a certain degree of anemia, which supports to use the ferroportin inhibitors in the treatment starting from 3 months to improve erythropoiesis and anemia (FIG. 1). • About 60-70% of MDS mice show a mild to moderate anemia at 3 months of age. According to Hb levels, 3 month-old MDS mice can be divided into 3 groups presenting very mild, mild and moderate anemia (no/very mild anemia: Hb>13 g/dl; mild anemia: 10 g/dl<Hb<13 g/dl; moderate anemia: 8 g/dl<Hb<10 g/dl) (FIG. 2). Rarely MDS mice show severe anemia at 3 months age (severe anemia: Hb<8 g/dl). This reflects the situation of MDS patients whose 70-80% present anemia at diagnosis with different degree of severity. • In MDS mice treated for 3 months with Fpn127 from 3 to 6 months of age, the following parameters were monitored: • Serum iron levels and NTBI; • Liver iron accumulation; • Anemia and blood parameters; • Erythropoiesis—including RBC maturation, erythroid precursor apoptosis and ROS; • Hematopoietic stem cells—including apoptosis, ROS and DNA damage; • Bone marrow macrophages and myeloid-derived suppressor cells (not shown). • The FIGS. 3 to 15 show the results obtained as average of 3 independent experiments.
• Similar as in the MDS mouse model described above, the kinetic effects of VIT-2763, administered into the drinking water (0.5 mg/ml) was investigated in NUP98-HOXD13 model of MDS.
• To study the protective effect of the compound on the progressive development of iron overload and related toxicities, 3-month-old MDS mice were treated and compared to age-and sex-matched untreated MDS mice and wild-type control. Mice were treated with VIT-2763 from 3 months of age on to follow longitudinally blood parameters and survival (FIGS. 16-19), or for 3 months-from 3 to 6 months of age, for cellular and biochemical analyses (FIGS. 20-24).

[4] = system: mouse model of β-thalassemia; settings: cited from earlier work
[5] = system: NUP98-HOXD13 MDS mice; test: NUP98-HOXD13 MDS mouse model, rescuing effect (treatment from 5 months of age); format: in vivo; settings: for Leukemia development / Anemia after 5 months of treatment: additional results; for Leukemia development: WBC; for Anemia after 5 months of treatment: 10 months of age
Protocol: as §1
• To study the rescuing effect of the ferroportin inhibitors according to the invention on the established iron overload and related toxicities in MDS, overall 8 5-month-old MDS mice were treated with the Example Compound Fpn127 and compared to 8 age-and sex-matched MDS untreated mice and wild-type control (1 experiment). Mice were treated from 5 months of age onwards. During the treatment period 3 untreated and 3 treated MDS mice were lost. […] Other 2 mice died without the opportunity to monitor parameters. No molecular analysis of 5 month-old treated mice was obtained as this cohort was kept for further observing and monitoring. To better follow individual blood parameter modulation two cohorts of mice whose treatment has been started at 3 and 5 months of age respectively, are analyzed longitudinally once a month along the treatment.
• To study the rescuing effect of the compound on the established iron overload and related toxicities in MDS, 5-month-old MDS mice were treated and compared to age-and sex-matched untreated MDS mice and wild-type controls. Mice were treated from 5 months of age onwards. […] The anemia of MDS mice tends to worsen from 5 months of age on.

[6] = 3 to 6 months of age, listed as VIT
[7] = 3 to 6 months of age, listed as VIT-2763
[8] = Annexin V, MDS mice, 3 to 6 months of age
[9] = MDS mice, 3 to 6 months of age, listed as Example Compound No. 127
[10] = MDS mice, 0.5 mg/ml, 3 to 6 months of age
[11] = MDS mice, 0.5 mg/ml, 3 to 6 months of age, listed as Example Compound No. 127
[12] = bone marrow, MDS mice, 3 to 6 months of age
[13] = treated from 3 months of age on, from 5 through 7 months of age
[14] = treated from 5 months of age, listed as VIT
[15] = treated from 5 months of age, listed as VIT-2763

O=C(NCc1ncccc1F)c1csc(CCNCc2nc3ccccc3[nH]2)n1 [VIT-2653]
Hb levels following exchange transfusion ([1]; guinea pigs, intravenous): significantly improved | NTBI levels following exchange transfusion ([1]; guinea pigs, intravenous): significantly improved | Total iron in kidneys following transfusion ([1]; guinea pigs, intravenous): can be reduced | Occurrence of changes in plasma creatinine >0.3 mg/dL (early acute kidney injury) ([1]; transfused guinea pigs): significantly reduced

O=C(NCc1ncccc1F)c1coc(CCNCCc2nc3ccccc3[nH]2)n1 [Fpn127]
Treated MDS mice still alive at 15 months of age [2]: two | Immature Lin+ cKit+ cells in bone marrow [3, 6]: reduced | Immature Lin+ cKit+ cells in bone marrow [3, 7]: reduces | Bone marrow CD11b+ myeloid cells (myeloid expansion) [3, 6]: reduced | IL-1β production by bone marrow macrophages [3, 6]: reduced | Macrophage number in bone marrow [3, 6]: improved macrophage number | Monocytic and granulocytic myeloid-derived suppressor cells (MDSCs) in bone marrow [3, 6]: reduced | TNFα production by bone marrow macrophages [3, 6]: reduced | Bone marrow CD11b+ myeloid cells (myeloid expansion) [3, 7]: reduces myeloid expansion | IL-1β production by bone marrow macrophages [3, 7]: limits | Macrophage number in bone marrow [3, 7]: improves macrophage number | Monocytic and granulocytic myeloid-derived suppressor cells (MDSCs) in bone marrow [3, 7]: reduces myeloid expansion | TNFα production by bone marrow macrophages [3, 7]: limits | Apoptosis in Ter119+ erythroid precursors [3, 8]: decreasing; also recorded: reduced | Cell survival / apoptosis of LSK cells [3, 8]: lower apoptosis | Apoptosis in Ter119+ erythroid precursors ([3]; Annexin V, MDS mice, 3 to 6 months of age, listed as Example Compound No. 127): prevent their apoptosis | Erythropoiesis / erythroid maturation in bone marrow and spleen ([3]; MDS mice, 3 to 6 months of age): improves bone marrow erythroid maturation; also recorded: improves splenic erythroid maturation; also recorded: significantly improved | Erythropoiesis / erythroid maturation in bone marrow and spleen [3, 9]: improve ineffective erythropoiesis | Improvement of Hb levels ([3]; MDS mice treated from 3 months of age, after 2, 3 and 4 months of treatment): about 2 g/dl | Anemia, longitudinal monitoring ([3]; MDS mice treated with 0.5 mg/ml from 3 months of age): improves anemia | Serum iron levels ([3]; MDS mice, 0.5 mg/ml in drinking water for 3 months, 3 to 6 months of age): reduces; also recorded: significantly decreased | Anemia [3, 10]: Improved anemia; also recorded: ameliorates anemia | HCT [3, 10]: significantly improved | Hb [3, 10]: significantly improved | Kidney iron content [3, 10]: significantly decreased | Liver iron content [3, 10]: prevents iron loading; also recorded: significantly decreased | MCH [3, 10]: remain unchanged | MCV [3, 10]: remain unchanged | Platelet count [3, 10]: remains unchanged | RBC [3, 10]: significantly improved | Reticulocytes [3, 10]: trend to improvement | Spleen iron [3, 10]: further elevated | WBC count elevation / progression to leukemia [3, 10]: trend in reducing progression to leukemia; also recorded: only one mouse show a trend to elevated WBC count | Anemia [3, 11]: ameliorate anemia | Liver iron content [3, 11]: prevent | Double strand breaks (γH2AX) in LSK cells ([3]; MDS mice, 3 to 6 months of age): reduced double strand breaks | ROS production in LSK cells ([3]; MDS mice, 3 to 6 months of age): decreased ROS production | Expression of CD71 on Ter119+ erythroid precursors ([3]; bone marrow and spleen, MDS mice, 3 to 6 months of age): significant reduction | Overall status of hematopoietic LSK stem cells [3, 12]: improves the overall status; also recorded: overall improvement | Pool of LSK cells [3, 12]: likely preserved | ROS formation in Ter119+ erythroid precursors ([3]; MDS mice, 3 to 6 months of age): decreasing; also recorded: reduced | ROS formation in Ter119+ erythroid precursors [3, 9]: limit | Iron accumulation in LSK cells ([3]; labile iron, MDS mice, 3 to 6 months of age): reduced iron accumulation | WBC increase in peripheral blood / leukemia evolution ([3]; longitudinal, treated from 3 months of age, listed as VIT-2763): delays leukemia evolution; also recorded: not observed or delayed | NTBI levels ([3]; MDS mice, 3 to 6 months of age): reduces; also recorded: significantly decreased | NTBI levels [3, 9]: prevent NTBI formation | Survival (Kaplan-Meier) ([3]; treated from 3 months of age): improves MDS mice survival | HCT, longitudinal monitoring [3, 13]: significantly improved | Hb, longitudinal monitoring [3, 13]: significantly improved | RBC, longitudinal monitoring [3, 13]: significantly improved | Anemia [4]: ameliorated anemia | Liver iron loading [4]: prevents liver iron loading | Ineffective erythropoiesis ([4]; oral): improves ineffective erythropoiesis | Leukemia development [5, 14]: delayed leukemia development | Leukemia development [5, 15]: delays leukemia evolution | Anemia after 5 months of treatment [5, 14]: improved anemia was observed | Anemia after 5 months of treatment [5, 15]: improves anemia | Median survival improvement compared to untreated mice ([5]; older MDS mice, treated from 5 months of age): about 16 days | Hb of treated mice still alive at 15 months of age ([5]; stable blood parameters): about 9 g/dl | Survival (Kaplan-Meier) ([5]; treated from 5 months of age): improves MDS mice survival | Anemia after 3 months of treatment ([5]; treated from 5 months of age, 5 to 8 months of age): failed to observe improved anemia | Anemia in older MDS mice ([5]; treated from 5 months of age, mice at 9 and 10 months of age, subset of mice): improves anemia; also recorded: partial improvement of anemia | Progression to leukemia / leukemia-related death ([5]; treated from 5 months of age, mice that died): reduces leukemia-related death; also recorded: no apparent progression to leukemia | Life span reached by MDS mice benefiting from treatment ([5]; untreated all dying within 400 days): up to 600 days
